Source: patent publication US20170000112A1, “METHOD OF PRESERVING CUT ROSES DURING TRANSPORTATION AND STORAGE AND SHIPMENT KIT CONTAINING CUT ROSES” (priority 2013, published 2017)

Experiments:
cut red roses [1] = experiment: Vase life, dipped/dry versus BA in bucket water, 8 days at 2° C. (Example 6); type: in vivo, rose
Method: Example 5 was repeated, except that this time the sets of cut flowers were kept under refrigerated and dark conditions for 8 days instead of 24 hours.

cut red roses [2] = experiment: Vase life, dipped/dry versus BA in bucket water, 24 hours at 2° C. (Example 5); type: in vivo, rose
Source text: Three different types of cut red roses were used in this study, namely ‘Hot Blood’, ‘Rhodos’ and ‘Incredible’. For each type flowers were randomly divided into four different sets.
One set of flowers (set A) was subjected to a preservation treatment that involved dipping of the flower heads into an aqueous solution of 80 ppm 6-benzylaminopurine (BA) in tap water for 3 seconds.
Immediately after the preservation treatment of set A, each set of flowers was bunched and sleeved (10 flowers per sleeved bunch) after the ends of the flower stems had been cut off, and in total 20 flowers of each set were kept for 4 hours at 20° C. under dark conditions in buckets (60 stems per bucket) with the flower stems immersed in 2 liters of water containing 1 ml/l of a flower pre-treatment product (Chrysal® Grow 20).
Following this pre-treatment, the sleeved flower bunches of set A were removed from the buckets and packaged without any external water supply in a carton box (l×b×h=1.0×0.4×0.2 m). The carton box contained 6 sleeved flower bunches.
One of the other three sets of non-dipped flowers(Control) was packaged in the same way, i.e. in carton boxes without external water supply.
The remaining two sets of non-dipped flowers (sets B and C) were introduced into buckets (20 stems per bucket) that each contained 2 liters of water.
The bucket water of set B contained 7 ppm BA. The bucket water of set C contained 7 ppm BA as well as 5 ml/l of Chrysal® Clear Professional 2 (CCP2). This product is based on sugars and acidifier, while biocides are present to protect these active ingredients against bacterial attack.
The four sets of roses were kept at 2° C. under dark conditions for 24 hours, following which each set was transferred into buckets (60 stems per bucket) that contained 2 liters of water to which 5 ml/l Chrysal® Clear Professional 2 had been added. Before introducing the cut flowers into the buckets, the ends of the flower stems were cut off. The buckets holding the sleeved cut flowers were kept for 4 days under dark, refrigerated (2° C.) conditions, and subsequently for 2 days at 20° C. under daylight conditions (12 hours 1000 lux and 12 hours dark).
Next, for each of the three different type of cut red roses the two bunches of 10 cut flowers from each of the sets were introduced in vases, each holding 1 liter of water to which 10 g/l Chrysal® Clear had previously been added. Before introducing the cut flowers into the vases, the ends of the flower stems were cut off. The vases holding the flowers were kept at 20° C. under daylight conditions (12 hours 1000 lux and 12 hours dark).
The quality of the cut flowers was assessed at regular intervals by an expert panel and from these assessments the average vase life was determined for the cut flowers of each of the 4 sets.
The letters behind the numerical scores in Table 8 indicate to which extent the difference between the 4 scores for a given set of cut flowers are statistically significant (at a P-value of 0.05). Scores that are followed by the same latter are not statistically significant.

cut roses [3] = experiment: Vase life and leaf quality after 9 days simulated dry transport (Examples 3 and 4); type: in vivo, rose; details: for Vase life: dipped in 80 ppm BA, 9 days dry transport; for Leaf quality: visual score after 12 days on the vase, 1=poor, 5=good
Source text: Example 1 was repeated, except that this time no Reference set was used, i.e. the study used two sets of flowers that were both transported without water supply (dry). Furthermore, the cut roses used in the study had been air transported under dry conditions from Colombia to the Netherlands. Bunches containing 4 flowers of each of three different types of roses (‘Red Intuition’ (red), ‘Citran’ (yellow), ‘Vendela’ (white) were used in this study. The duration of simulated transportation was reduced from 14 to 9 days and the duration of shop display was increased from 2 to 3 days.
Besides the vase life of the flowers the expert panel also scored visual leaf quality after 12 days on the vase (1=poor, 5=good). The BA concentration in the flower heads was not analyzed in this study.
Example 3 was repeated, except that this time the following three different types of roses were used in the study: • ‘Freedom’ (red) • ‘Bonanza’ (peach) • ‘Sandra’ (pink)

cut red roses [4] = experiment: Colour retention of red roses after 11 days on the vase (Examples 1 and 2); type: in vivo, rose; details: dipped in 80 ppm BA
cut rose flowers = details: sprayed or held in solution prior to simulated home conditions; cited from earlier work
cut roses [5] = experiment: Vase life of cut roses after 14 days simulated dry refrigerated transport (Examples 1 and 2); type: in vivo, rose; details: flower heads dipped 3 s in 80 ppm BA, 14 days dry transport at 2° C.
Method: Freshly cut red roses (Red Desire') were obtained from a greenhouse in the Netherlands. These flowers were randomly divided into three different sets . Within 4 hours of cutting, one set of flowers (set A) was subjected to a preservation treatment that involved dipping of the flower heads into an aqueous solution of 80 ppm 6-benzylaminopurine (BA) in tap water for 3 seconds. Immediately after the preservation treatment, each set of flowers was bunched and sleeved (6 flowers per sleeved bunch) after the ends of the flower stems had been cut off, and in total 108 flowers of each set were kept 24 hours at 2° C. under dark conditions in buckets (54 stems per bucket) with the flower stems immersed in 2 liters of water containing 1 ml/l of a flower pre-treatment product ([…]® Grow 20). Following this pre-treatment, the sleeved flower bunches of set A were removed from the buckets and packaged without any external water supply in a carton box (l×b×h=1.0×0.4×0.2 m). The carton box contained 18 sleeved flower bunches. One of the other two sets of flowers (Control) was packaged in the same way. The remaining set of flowers (Reference) was not packaged dry into a carton box, but immediately subjected to the sequence of storage and display conditions described in Table 1. [table] Before the refrigerated storage and the home display the ends of the flower stems were cut off. The packaged flowers (sleeved and in a carton box) belonging to Set A and the Control set were subjected to simulated refrigerated transport under dry, dark conditions for 14 days at 2° C. before also being subjected to the sequence of storage and display conditions described in Table 1. Before the refrigerated storage stage the BA concentrations in the flower heads were analyzed. In addition, the vase life of the flowers was assessed by an expert panel during the home display period. Example 1 was repeated, except that this time, instead of using cut roses obtained from a Dutch green house, cut roses that had been air transported under dry conditions from Kenya to the Netherlands were used. Three different types of cut red roses were used in this study, namely 'Hot Blood', 'Rhodos' and 'Incredible'.

[6] = tested on: flower spikes of gladiolus and carnation; details: stems immersed in 10, 30 and 75 ppm solution; spikes previously wilted dry for 4 hours; cited from earlier work
rose flower buds = details: 350 mg/L (ca. 1 mM) solution; preliminary experiments, data not shown; cited from earlier work

## c1ccc(CNc2ncnc3nc[nH]c23)cc1 [BA, 6-benzylaminopurine]
Cut red roses [1]; 'Hot Blood', P-value of 0.05, 8 days at 2° C.
  Average vase life of the dipped set versus the non-dipped sets: higher than that of the non-dipped sets, but the difference with the control set and set C was not statistically significant
Cut red roses [1]; 'Hot Blood', non-dipped, wet, stems in bucket water containing 7 ppm BA, 8 days at 2° C.
  Vase life: 7.3 days
Cut red roses [1]; 'Hot Blood', set A, flower heads dipped in 80 ppm BA, dry in carton box 8 days at 2° C.
  Vase life: 11.8 days
Cut red roses [1]; 'Incredible', non-dipped, wet, stems in bucket water containing 7 ppm BA, 8 days at 2° C.
  Vase life: 10.4 days
Cut red roses [1]; 'Incredible', set A, flower heads dipped in 80 ppm BA, dry in carton box 8 days at 2° C.
  Vase life: 14.8 days
Cut red roses [1]; 'Rhodos', non-dipped, wet, stems in bucket water containing 7 ppm BA, 8 days at 2° C.
  Vase life: 8.2 days
Cut red roses [1]; 'Rhodos', set A, flower heads dipped in 80 ppm BA, dry in carton box 8 days at 2° C.
  Vase life: 13.5 days
Cut red roses [1]; two of the rose types ('Rhodos', 'Incredible'), P-value of 0.05, 8 days at 2° C.
  Vase life of the dipped set versus the non-dipped sets: significantly longer vase life
Cut red roses [2]; 'Hot Blood', non-dipped, wet, stems in bucket water containing 7 ppm BA, 24 hours at 2° C.
  Vase life: 11.2 days
Cut red roses [2]; 'Hot Blood', set A, flower heads dipped in 80 ppm BA, dry in carton box 24 hours at 2° C.
  Vase life: 16.2 days
Cut red roses [2]; 'Incredible', non-dipped, wet, stems in bucket water containing 7 ppm BA, 24 hours at 2° C.
  Vase life: 11.1 days
Cut red roses [2]; 'Incredible', set A, flower heads dipped in 80 ppm BA, dry in carton box 24 hours at 2° C.
  Vase life: 17.2 days
Cut red roses [2]; 'Rhodos', non-dipped, wet, stems in bucket water containing 7 ppm BA, 24 hours at 2° C.
  Vase life: 9.4 days
Cut red roses [2]; 'Rhodos', set A, flower heads dipped in 80 ppm BA, dry in carton box 24 hours at 2° C.
  Vase life: 13.9 days
Cut red roses [2]; each of the rose types, P-value of 0.05, 24 hours at 2° C.
  Vase life of the dipped set versus the non-dipped sets: significantly longer vase life
Cut roses [3]; 'Bonanza' (peach)
  Vase life: 14.5 days
Cut roses [3]; 'Citran' (yellow, Colombia)
  Vase life: 12.5 days
Cut roses [3]; 'Freedom' (red)
  Vase life: 18.8 days
Cut roses [3]; 'Red Intuition' (red, Colombia)
  Vase life: 9.6 days
Cut roses [3]; 'Sandra' (pink)
  Vase life: 17.6 days
Cut roses [3]; 'Vendela' (white, Colombia)
  Vase life: 13.0 days
Cut roses [3]; Example 3 (Red Intuition, Citran, Vendela)
  Leaf quality: 3.0
Cut roses [3]; Example 4 (Freedom, Bonanza, Sandra)
  Leaf quality: 4.0
Cut red roses [4]; 'Hot Blood', control showed blueing/darkening
  Colour of the red roses after 11 days on the vase: retained most of their original red colour
Cut red roses [4]; 'Incredible', control showed blueing/darkening
  Colour of the red roses after 11 days on the vase: retained most of their original red colour
Cut red roses [4]; 'Red Desire', control showed bluing/darkening
  Colour of the red roses after 11 days on the vase: retained most of their original red colour
Cut red roses [4]; 'Rhodos', control showed blueing/darkening
  Colour of the red roses after 11 days on the vase: retained most of their original red colour
Cut rose flowers
  Effect on rose vase life: did not benefit on rose vase life
Cut roses [5]; 'Hot Blood' (Kenya)
  Vase life: 13.9 days
Cut roses [5]; 'Incredible' (Kenya)
  Vase life: 13.0 days
Cut roses [5]; 'Red Desire'
  Vase life: 12.8 days
Cut roses [5]; 'Rhodos' (Kenya)
  Vase life: 14.9 days
[6]
  Effect on vase life of flower spikes: extended the vase life

## C=C1C[C@]23C[C@@]1(O)CC[C@H]2[C@@]12C=C[C@H](O)[C@](C)(C(=O)O1)[C@H]2[C@@H]3C(=O)O [GA3]
Rose flower buds
  Effect on rose flower vase-life when applied as a spray: optimal for improving rose flower vase-life

## c1coc(CNc2ncnc3[nH]cnc23)c1 [KI, kinetin]
Cut rose flowers
  Effect on rose vase life: did not benefit on rose vase life
